# Key:
# [1] = system: AT-3 OVA breast cancer cells; assay: Syngeneic AT-3 OVA breast cancer tumour growth in mice treated with PTP1B inhibitor; type: in vivo; details: for Tumor growth: AT-3 OVA cells in mammary fat pads, Ptpn1fl/fl and Lck-Cre;Ptpn1fl/fl female mice, 10 mg/kg i.p. every three days from day 17, vs untreated Ptpn1fl/fl, p<0.0001, 2-way ANOVA
# Experimental: (§1) FIG. 20. PTP1B-specific inhibitor MSI-1436 (Trodusquemine) repressed tumor growth. 1×10^6 AT-3 OVA breast cancer cells suspended in 20 μl 1×DPBS were transplanted into mammary fat pads of T cell-specific PTP1B-deficient (Lck-Cre; Ptpn1^fl/fl; n=16) and PTP1B wild-type (Ptpn1^fl/fl; n=16) female mice. 17 days after the tumor cell transplantation, MSI-1436 was applied to recipient mice through intraperitoneal injection in 100 μl 0.9% (v/v) saline with the concentration of 10 mg per kilogram body weight. 8 out 16 mice from both Ptpn1^fl/fl and Lck-Cre; Ptpn1^fl/fl recipients were treated every three days with MSI-1436 before the start of the dark cycle. […] This was accompanied by a reduction in food intake and adiposity but no changes in lean mass (data not shown). Representative results (means±SEM) for the indicated numbers of mice and experiments are shown. Significances were determined using 2-tailed Mann-Whitney U Test.
# Breast cancer cells were transplanted into mammary fat pads of mice that were “globally” ptp1b-deficient (Ptpn1^−/−) or T-cell specific ptp1b-deficient (Lck-Cre; Ptpn1^fl/fl). Tumour growth was monitored for 28 days after transplantation. […] (FIG. 18A). […] (FIG. 19A).
# [2] = Body weight, food intake and body composition of tumour-bearing mice treated with PTP1B inhibitor; type: in vivo
# Experimental: as §1
smiles,measurement,setting,value
"CC(C)[C@@H](CC[C@@H](C)[C@H]1CC[C@H]2[C@@H]3[C@H](O)C[C@H]4C[C@@H](NCCCNCCCCNCCCN)CC[C@]4(C)[C@H]3CC[C@]12C)OS(=O)(=O)O [MSI-1436, Trodusquemine]",Tumor growth,[1]; 10 mg/kg,significantly suppressed
same,Tumor growth,"[1]; listed as MSI1436, 10 mg/kg",repressed the growth
same,Tumour burden in mice lacking PTP1B in T cells,"[1]; Lck-Cre;Ptpn1fl/fl mice, treatment once every 3 days",did not lead to further reductions in tumour burden
same,Tumor burden,"[1]; MSI-1436-treated Ptpn1fl/fl mice vs non-treated counterparts, 10 mg/kg i.p. every three days, p<0.0001",significant reduction of tumor burden
same,Body weight,"[2]; Lck-Cre;Ptpn1fl/fl or Ptpn1fl/fl mice, 10 mg/kg i.p. every three days, p<0.0001",significant weight loss
same,Adiposity,"[2]; treated mice, data not shown",reduction
same,Food intake,"[2]; treated mice, data not shown",reduction
same,Lean mass,"[2]; treated mice, data not shown",no changes

# — patent US20210207095A1, “METHODS OF ACTIVATING CELLS VIA PTP 1B INHIBITION” (Monash University, priority 2018, published 2021)
